Source: ChEMBL document CHEMBL1201862, “PubChem BioAssay data set” (2004)
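48-hour exposure; five concentrations; linearly interpolated endpoints. GI50: concentration for 50% inhibition of growth.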 Active and inactive are the calls of the source. Cut-off read from the data, not from the text of the source: active = GI50 up to about 1.1 µM and inactive = higher.

Columns and labels:
Test in all cases: NCI-60 cell line screen, 48 h
[1] = tested on: A549
[2] = tested on: CCRF-CEM
[3] = tested on: UACC-62
[4] = tested on: DU-145
[5] = tested on: OVCAR-8
[6] = tested on: Malme-3M
[7] = tested on: IGROV-1
[8] = tested on: NCI-H23
[9] = tested on: A498
[10] = tested on: HCT-15
[11] = tested on: MDA-MB-231
[12] = tested on: PC-3
[13] = tested on: SK-MEL-28
[14] = tested on: Hs-578T
[15] = tested on: HL-60
[16] = tested on: SNB-19
[17] = tested on: RPMI-8226
[18] = tested on: SF-295
[19] = tested on: HCC 2998
[20] = tested on: SR
[21] = tested on: NCI-H522
[22] = tested on: UACC-257
[23] = tested on: SW-620
[24] = tested on: TK-10
[25] = tested on: BT-549
[26] = tested on: CAKI-1
[27] = tested on: HOP-92
[28] = tested on: KM12
[29] = tested on: SN12C
[30] = tested on: MOLT-4
[31] = tested on: HT-29
[32] = tested on: U-251
[33] = tested on: HOP-62
[34] = tested on: HCT-116
[35] = tested on: SK-MEL-5
[36] = tested on: 786-0
[37] = tested on: OVCAR-5
[38] = tested on: ACHN
[39] = tested on: SF-539
[40] = tested on: MCF7
[41] = tested on: M14
[42] = tested on: MDA-N
[43] = tested on: T47D
[44] = tested on: NCI/ADR-RES
[45] = tested on: RXF 393
[46] = tested on: SF-268
[47] = tested on: NCI-H460
[48] = tested on: EKVX
[49] = tested on: MDA-MB-435
[50] = tested on: K562
[51] = tested on: LOX IMVI
[52] = tested on: NCI-H226
[53] = tested on: OVCAR-3
[54] = tested on: SNB-75
[55] = tested on: UO-31
[56] = tested on: SK-MEL-2
[57] = tested on: OVCAR-4
[58] = tested on: COLO 205
[59] = tested on: SK-OV-3

Measured: GI50

CCOC(=O)C1CCC(=O)N1C(=O)c1ccccc1Cl (centres undefined)
inactive: [1] > 100 µM | [2] > 100 µM | [3] 27.4 µM | [4] > 100 µM | [5] > 100 µM | [6] > 100 µM | [7] > 100 µM | [8] > 100 µM | [9] > 100 µM | [11] > 100 µM | [12] > 100 µM | [13] > 100 µM | [14] > 100 µM | [15] > 100 µM | [16] > 100 µM | [17] > 100 µM | [18] > 100 µM | [19] > 100 µM | [20] > 100 µM | [21] > 100 µM | [22] > 100 µM | [23] > 100 µM | [24] > 100 µM | [25] > 100 µM | [26] > 100 µM | [27] > 100 µM | [28] > 100 µM | [29] > 100 µM | [30] > 100 µM | [31] > 100 µM | [32] > 100 µM | [33] > 100 µM | [34] > 100 µM | [35] > 100 µM | [36] > 100 µM | [37] > 100 µM | [38] > 100 µM | [39] > 100 µM | [40] > 100 µM | [41] > 100 µM | [42] > 100 µM | [43] > 100 µM | [44] > 100 µM | [45] > 100 µM | [46] > 100 µM | [47] > 100 µM | [48] > 100 µM | [49] > 100 µM | [50] > 100 µM | [51] > 100 µM | [52] > 100 µM | [53] > 100 µM | [54] > 100 µM | [55] > 100 µM
> 100 µM: [10]

O=C1CSC(c2c(O)ccc3ccccc23)N1n1c(S)nnc(/C=C/c2c(O)ccc3ccccc23)c1=O (centres undefined)
inactive: [56] 1.17 µM | [1] 1.32 µM | [4] 2.01 µM | [6] 2.22 µM | [7] 2.28 µM | [8] 1.98 µM | [9] 2.76 µM | [12] 3.18 µM | [14] 44.4 µM | [16] 1.69 µM | [17] 1.26 µM | [18] 6.71 µM | [21] 1.14 µM | [22] 1.43 µM | [24] 1.18 µM | [27] 16.3 µM | [30] 17.9 µM | [31] 1.27 µM | [32] 1.33 µM | [33] 4.84 µM | [37] 1.99 µM | [42] 4.05 µM | [45] 1.45 µM | [48] 6.15 µM | [51] 1.44 µM | [54] 1.5 µM
0.327 µM: [10]
active: [57] 0.583 µM | [2] 0.244 µM | [3] 0.705 µM | [5] 0.467 µM | [11] 0.63 µM | [15] 0.232 µM | [19] 1.11 µM | [20] 0.51 µM | [23] 0.753 µM | [25] 0.908 µM | [26] 0.489 µM | [29] 0.752 µM | [34] 0.359 µM | [36] 0.662 µM | [38] 0.466 µM | [40] 0.451 µM | [41] 0.935 µM | [43] 0.59 µM | [44] 0.851 µM | [46] 0.771 µM | [47] < 0.01 µM | [49] 0.966 µM | [50] 0.521 µM | [53] 0.387 µM | [55] 0.92 µM

Cc1nnc(S(=O)(=O)c2ccc(/N=N/c3c(N)nc(N)nc3N)cc2)s1
> 100 µM: [10]
inactive: [56] > 100 µM | [58] > 100 µM | [57] > 100 µM | [1] > 100 µM | [2] > 100 µM | [3] > 100 µM | [4] > 100 µM | [5] > 100 µM | [6] > 100 µM | [7] > 100 µM | [8] > 100 µM | [9] > 100 µM | [11] > 100 µM | [12] > 100 µM | [13] > 100 µM | [14] > 100 µM | [15] 33.4 µM | [16] > 100 µM | [17] > 100 µM | [18] > 100 µM | [20] > 100 µM | [21] > 100 µM | [22] > 100 µM | [23] > 100 µM | [24] > 100 µM | [25] > 100 µM | [59] > 100 µM | [26] > 100 µM | [27] > 100 µM | [28] > 100 µM | [29] > 100 µM | [30] > 100 µM | [31] > 100 µM | [32] > 100 µM | [33] > 100 µM | [34] > 100 µM | [35] > 100 µM | [36] > 100 µM | [37] > 100 µM | [38] > 100 µM | [39] > 100 µM | [40] > 100 µM | [41] > 100 µM | [42] > 100 µM | [43] > 100 µM | [44] > 100 µM | [45] > 100 µM | [46] > 100 µM | [47] > 100 µM | [48] > 100 µM | [49] > 100 µM | [50] > 100 µM | [51] > 100 µM | [52] > 100 µM | [53] > 100 µM | [55] > 100 µM
